Data on two sequences can be found in PMC3836994, “Killer Bee Molecules: Antimicrobial Peptides as Effector Molecules to Target Sporogonic Stages of Plasmodium” (PLoS Pathogens, 2013).

No end group written: not given here. A value given as a limit tells only on which side of the number the result lay.

Experiment [1] concerns P. falciparum. Kind of experiment: Field P. falciparum from gametocyte carriers membrane-fed to An. gambiae (Mali). In kind it is in vivo, Plasmodium falciparum. As to conditions: 50 µM; for Oocyst prevalence (oocyst positive mosquitoes), peptide: blood of gametocyte carriers, progeny of field An. gambiae; for Oocyst intensity (mean number of oocysts per gut, range in parentheses), peptide: field parasites and mosquitoes.

Experiment [2] deals with P. falciparum. As to the kind of experiment: Cultured P. falciparum gametocytes membrane-fed to An. gambiae (oocyst prevalence and intensity). As to conditions: 50 µM; for Oocyst intensity (mean number of oocysts per gut, range in parentheses), peptide / Oocyst prevalence (oocyst positive mosquitoes), peptide: cultured gametocytes, An. gambiae. In kind it is in vivo, Plasmodium falciparum. The method, then: P. falciparum NF54 gametocytes were produced through large-scale automated culture at the Pasteur Institute, Paris, [69]. Gametocytes were grown in 10 ml RPMI 1640 medium (Invitrogen), supplemented with 25 mM HEPES and L-glutamine, 10% heat-inactivated human serum and hypoxanthine (20 mg/L) under a constant gas supply (5% CO2, 1% O2, 94% N2). Fresh red blood cells (RBCs) were added to obtain a 7% haematocrit. Fourteen days after initiating the culture, gametocyte maturity was assessed on thin Giemsa-stained blood smears, and male gametocyte maturity verified by exflagellation tests. Gametocyte cultures were centrifuged for 5 min at 1500 rpm and the ∼500–600 µl pellet resuspended in fresh RBCs and AB human serum to give a final haematocrit of 40%.
Blood containing mature gametocytes (475 µl) was added to 25 µl of the test AMP (50 µM final concentration). Peptides were replaced by 25 µl of sterile deionized water for each control. The blood/parasite/peptide mixture was placed in a Hemotek membrane feeder, previously warmed to 37°C. For each feed, 70 to 100 nulliparous female An. gambiae mosquitoes were left to feed in the dark for 15 min and only fully engorged females were transferred to small cages and provided with 10% sucrose containing 0.05% PABA. After 8 days, 30 midguts were dissected and stained with bromo fluorescein for the detection of oocysts.

For “KFPKFRRGIPFLFVGPSGKFPKFRRGIPFLFV [Vida 3 dimer]”, in the experiment on P. falciparum [1] (Replicate 1), the “Oocyst prevalence (oocyst positive mosquitoes), peptide” value (“Oocyst prevalence” below) was 3% (63) and the “Oocyst intensity (mean number of oocysts per gut, range in parentheses), peptide” value was <1 (0–1). Moreover, in the experiment on P. falciparum [1] (Replicate 2), the “Oocyst prevalence” value is listed as 0% (45) and the “Oocyst intensity (mean number of oocysts per gut, range in parentheses), peptide” value turned out to be 0.
Consider “AGYLLGKINLKALAALAKKILGGAGYLLGKINLKALAALAKKIL [TP10 dimer, TP10 (dimer)]”, for which the “Oocyst intensity (mean number of oocysts per gut, range in parentheses), peptide” value with P. falciparum [2] (Replicate 1) is <1 (0–2); in the experiment on P. falciparum [2] (Replicate 2) it was 0; with P. falciparum [2] (Replicate 3), 2 (0–14); in the experiment with P. falciparum [1] (Replicate 1), <1 (0–4); in the experiment on P. falciparum [1] (Replicate 2), <1 (0–1); in the experiment with P. falciparum [1] (Replicate 3) it was <1 (0–2). The “Oocyst prevalence” value in the experiment with P. falciparum [2] (Replicate 1, dissected after 8 days) is 17% (30); with P. falciparum [2] (Replicate 2), 0% (30); in the experiment with P. falciparum [2] (Replicate 3) it was 37% (30); in the experiment with P. falciparum [1] (Replicate 1), 9% (58); in the experiment on P. falciparum [1] (Replicate 2), 3% (38); with P. falciparum [1] (Replicate 3) it was 20% (49). Moreover, the “Average reduction of intensity of infection” value with P. falciparum [2] (over three replicates) was determined as 82%. Besides, in the experiment with P. falciparum [2] (over three replicates), the “Average reduction of prevalence” value amounted to 60%.
